Consider 21 compounds from patent publication US20090221642A1, “MUSCARINIC RECEPTOR AGONISTS, COMPOSITIONS, METHODS OF TREATMENT THEREOF, AND PROCESSES FOR PREPARATION THEREOF-176” (AstraZeneca AB, priority 2008, published 2009).

For this assay, the target named is T1, cloned human M4 receptor (human Muscarinic receptor subtype 4) (Homo sapiens, UniProt P08173).
T1 construct: purchased Perkin-Elmer RBHM4M; host or cells: Chinese hamster ovary cells (CHO) membranes
T1 sequence (P08173 1-479): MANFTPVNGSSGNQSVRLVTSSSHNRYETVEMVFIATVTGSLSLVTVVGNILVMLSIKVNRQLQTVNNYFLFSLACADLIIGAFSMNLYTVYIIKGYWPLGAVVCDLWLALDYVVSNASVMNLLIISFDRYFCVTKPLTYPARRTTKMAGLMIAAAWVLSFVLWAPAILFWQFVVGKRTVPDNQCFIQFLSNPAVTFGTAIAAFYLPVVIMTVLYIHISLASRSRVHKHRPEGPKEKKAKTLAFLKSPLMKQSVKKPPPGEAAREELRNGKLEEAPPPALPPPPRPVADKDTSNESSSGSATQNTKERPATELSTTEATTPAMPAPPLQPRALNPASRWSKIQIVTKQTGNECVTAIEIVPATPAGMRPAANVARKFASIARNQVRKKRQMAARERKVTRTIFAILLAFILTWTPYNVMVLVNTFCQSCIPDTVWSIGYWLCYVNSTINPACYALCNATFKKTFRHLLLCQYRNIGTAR
The assay is described as follows: hM4 receptor GTPγS binding. The assay is classed as biochemical. As to conditions: CHO cell membranes expressing hM4, [35S]GTPγS binding. The procedure:
hM4 Receptor GTPγS Binding
Membranes produced from Chinese hamster ovary cells (CHO) expressing the cloned human M4 receptor (human Muscarinic receptor subtype 4, gene bank access NM_000741), are obtained from Perkin-Elmer (RBHM4M). The membranes are thawed at 37° C., passed 3 times through a 23-gauge blunt-end needle, diluted in the GTPγS binding buffer (50 mM Hepes, 20 mM NaOH, 100 mM NaCl, 1 mM EDTA, 5 mM MgCl2, pH 7.4, 100 μM DTT). The EC50, IC50 and Emax of the compounds of the invention are evaluated from 10-point dose-response curves (three fold concentration range) done in 60 μl in 384-well non-specific binding surface plate (Corning). Ten microliters from the dose-response curves plate (5× concentration) are transferred to another 384 well plate containing 25 μl of the following: 10 μg of hM4 membranes, 500 μg of Flashblue beads (Perkin-Elmer) and GDP 40 μM. An additional 15 μl containing 3.3× (60,000 dpm) of GTPγ^35S (0.4 nM final) are added to the wells resulting in a total well volume of 50 μl. Basal and maximal stimulated [^35S]GTPγS binding are determined in absence and presence of 30 μM final of acetylcholine agonist. The membranes/beads mix are pre-incubated for 15 minutes at room temperature with 40 μM GDP prior to distribution in plates (20 μM final). The reversal of acetylcholine-induced stimulation (10 μM final) of [^35S]GTPγS binding is used to assay the antagonist properties (IC50) of the compounds. The plates are incubated for 60 minutes at room temperature then centrifuged at 400 rpm for 5 minutes. The radioactivity (cpm) is counted in a Trilux (Perkin-Elmer).
Values of EC50, IC50 and Emax are obtained using sigmoidal fits of a non-linear curve-fitting program (XLfit version 4.2.2 Excel add-in version 4.2.2 build 18 math 1Q version 2.1.2 build 18) of percent stimulated [^35S]GTPγS binding vs. log(molar ligand). All pEC50 and plC50 values are reported as arithmetic means ±standard error of mean of ‘n’ independent experiments.

Where two headings read alike, the source gives them in different places.

In the case of `COC(=O)N1CCC(C)(N2CCC(N3C(=O)Cc4cc(F)c(C)cc43)CC2)C1` (single isomer, unassigned) [Example 84, methyl 3-(4-(5-fluoro-6-methyl-2-oxoindolin-1-yl)piperidin-1-yl)-3-methylpyrrolidine-1-carboxylate], the midpoint of the response (hM4 EC50 (nM)), the EC50, lay at 2540 nM.

Take `Cc1ccc2c(c1)[nH]c(=O)n2C1CCN(C2(C)CCN(C(=O)OCCF)C2)CC1` (single isomer, unassigned) [Example 27, 2-fluoroethyl 3-methyl-3-(4-(5-methyl-2-oxo-2,3-dihydro-1H-benzo[d]imidazol-1-yl)piperidin-1-yl)pyrrolidine-1-carboxylate]: under “read-out: hM4 EC50”, the concentration for a half-maximal effect (EC50) – broadly, the concentration giving half of the maximal effect – came out at 3090 nM.

On to `COC(=O)N1CCC(C)(N2CCC(n3c(=O)[nH]c4ccc(C)cc43)CC2)C1` (single isomer, unassigned) [Example 45, methyl 3-methyl-3-(4-(6-methyl-2-oxo-2,3-dihydro-1H-benzo[d]imidazol-1-yl)piperidin-1-yl)pyrrolidine-1-carboxylate], for which the EC50 (read-out: hM4 EC50) is 11200 nM.

As to `CCOC(=O)N1CCC(C)(N2CCC(n3c(=O)[nH]c4ccc(F)cc43)CC2)C1` (single isomer, unassigned) [Example 50, ethyl 3-(4-(6-fluoro-2-oxo-2,3-dihydro-1H-benzo[d]imidazol-1-yl)piperidin-1-yl)-3-methylpyrrolidine-1-carboxylate], for the setting “read-out: hM4 EC50”, the EC50 came out at 2020 nM.

With `CCOC(=O)N1CCC(C)(N2CCC(n3c(=O)[nH]c4cc(F)c(C)cc43)CC2)C1` (single isomer, unassigned) [Example 56, ethyl 3-(4-(5-fluoro-6-methyl-2-oxo-2,3-dihydro-1H-benzo[d]imidazol-1-yl)piperidin-1-yl)-3-methylpyrrolidine-1-carboxylate], the EC50 (read-out: hM4 EC50) is 238 nM.

For `CC1(N2CCC(n3c(=O)[nH]c4ccc(F)cc43)CC2)CCN(C(=O)OCCF)C1` (single isomer, unassigned) [Example 53, 2-fluoroethyl 3-(4-(6-fluoro-2-oxo-2,3-dihydro-1H-benzo[d]imidazol-1-yl)piperidin-1-yl)-3-methylpyrrolidine-1-carboxylate], under “read-out: hM4 EC50”, the EC50 came to 5570 nM.

`CCOC(=O)N1CCC(C)(N2CCC(n3c(=O)[nH]c4cc(F)c(F)cc43)CC2)C1` (single isomer, unassigned) [Example 58, ethyl 3-(4-(5,6-difluoro-2-oxo-2,3-dihydro-1H-benzo[d]imidazol-1-yl)piperidin-1-yl)-3-methylpyrrolidine-1-carboxylate]: the EC50 (read-out: hM4 EC50) was determined as 9810 nM.

Regarding `C#CCOC(=O)N1CCC(C)(N2CCC(n3c(=O)[nH]c4cc(F)ccc43)CC2)C1` (stereo not drawn) [Example 11, prop-2-ynyl 3-(4-(5-fluoro-2-oxo-2,3-dihydro-1H-benzo[d]imidazol-1-yl)piperidin-1-yl)-3-methylpyrrolidine-1-carboxylate], the EC50 (read-out: hM4 EC50) was found to be 714 nM.

On to `CC1(N2CCC(n3c(=O)[nH]c4ccccc43)CC2)CCN(C(=O)OCCF)C1` (single isomer, unassigned) [Example 32, 2-fluoroethyl 3-methyl-3-(4-(2-oxo-2,3-dihydro-1H-benzo[d]imidazol-1-yl)piperidin-1-yl)pyrrolidine-1-carboxylate], for which the EC50 (read-out: hM4 EC50) is 33700 nM.

Regarding `COC(=O)N1CCC(C)(N2CCC(n3c(=O)[nH]c4cc(C)ccc43)CC2)C1` (single isomer, unassigned) [Example 48, methyl 3-methyl-3-(4-(5-methyl-2-oxo-2,3-dihydro-1H-benzo[d]imidazol-1-yl)piperidin-1-yl)pyrrolidine-1-carboxylate], the EC50 (read-out: hM4 EC50) is 3480 nM.

With `Cc1ccc2[nH]c(=O)n(C3CCN(C4(C)CCN(C(=O)OC(C)C)C4)CC3)c2c1` (single isomer, unassigned) [Example 39, isopropyl 3-methyl-3-(4-(6-methyl-2-oxo-2,3-dihydro-1H-benzo[d]imidazol-1-yl)piperidin-1-yl)pyrrolidine-1-carboxylate], the EC50 (read-out: hM4 EC50) was more than 90000 nM.

In the case of `COC(=O)N1CCC(C)(N2CCC(N3C(=O)Cc4ccc(C)cc43)CC2)C1` (single isomer, unassigned) [Example 68, methyl 3-methyl-3-(4-(6-methyl-2-oxoindolin-1-yl)piperidin-1-yl)pyrrolidine-1-carboxylate], the EC50 (read-out: hM4 EC50) worked out at 6210 nM.

On to `Cc1ccc2c(c1)[nH]c(=O)n2C1CCN(C2(C)CCN(C(=O)OC(C)C)C2)CC1` (single isomer, unassigned) [Example 14, isopropyl 3-methyl-3-(4-(5-methyl-2-oxo-2,3-dihydro-1H-benzo[d]imidazol-1-yl)piperidin-1-yl)pyrrolidine-1-carboxylate], for which the EC50 (read-out: hM4 EC50) was more than 90000 nM.

For the compound `COC(=O)N1CCC(C)(N2CCC(n3c(=O)[nH]c4ccc(C)cc43)CC2)C1` (stereo not drawn) [Example 17, methyl 3-methyl-3-(4-(6-methyl-2-oxo-2,3-dihydro-1H-benzo[d]imidazol-1-yl)piperidin-1-yl)pyrrolidine-1-carboxylate], the EC50 (read-out: hM4 EC50) was 3150 nM.

`CCOC(=O)N1CCC(C)(N2CCC(N3C(=O)Cc4ccc(C)cc43)CC2)C1` (single isomer, unassigned) [Example 69, ethyl 3-methyl-3-(4-(6-methyl-2-oxoindolin-1-yl)piperidin-1-yl)pyrrolidine-1-carboxylate]: the EC50 (read-out: hM4 EC50) turned out to be 8920 nM.

For `C#CCOC(=O)N1CCC(C)(N2CCC(n3c(=O)[nH]c4cc(F)ccc43)CC2)C1` (single isomer, unassigned) [Example 36, prop-2-ynyl 3-(4-(5-fluoro-2-oxo-2,3-dihydro-1H-benzo[d]imidazol-1-yl)piperidin-1-yl)-3-methylpyrrolidine-1-carboxylate], the EC50 (read-out: hM4 EC50) came to 6830 nM.

Consider `Cc1ccc2[nH]c(=O)n(C3CCN(C4(C)CCN(C(=O)OC(C)C)C4)CC3)c2c1` (single isomer, unassigned) [Example 40, isopropyl 3-methyl-3-(4-(6-methyl-2-oxo-2,3-dihydro-1H-benzo[d]imidazol-1-yl)piperidin-1-yl)pyrrolidine-1-carboxylate], for which the EC50 (read-out: hM4 EC50) is more than 22300 nM.

In the case of `CC1(N2CCC(n3c(=O)[nH]c4cc(F)ccc43)CC2)CCN(C(=O)OCCF)C1` (stereo not drawn) [Example 10, 2-fluoroethyl 3-(4-(5-fluoro-2-oxo-2,3-dihydro-1H-benzo[d]imidazol-1-yl)piperidin-1-yl)-3-methylpyrrolidine-1-carboxylate], the EC50 (read-out: hM4 EC50) worked out at 5170 nM.

Regarding `CC1(N2CCC(n3c(=O)[nH]c4cc(F)ccc43)CC2)CCN(C(=O)OCCF)C1` (single isomer, unassigned) [Example 24, 2-fluoroethyl 3-(4-(5-fluoro-2-oxo-2,3-dihydro-1H-benzo[d]imidazol-1-yl)piperidin-1-yl)-3-methylpyrrolidine-1-carboxylate], the EC50 (read-out: hM4 EC50) was 5090 nM.

As to `CCOC(=O)N1CCC(C)(N2CCC(N3C(=O)Cc4cc(F)ccc43)CC2)C1` (single isomer, unassigned) [Example 80, ethyl 3-(4-(5-fluoro-2-oxoindolin-1-yl)piperidin-1-yl)-3-methylpyrrolidine-1-carboxylate], the EC50 (read-out: hM4 EC50) was more than 21800 nM.

As for `CCNC(=O)N1CCC(C)(N2CCC(n3c(=O)[nH]c4ccccc43)CC2)C1` (stereo not drawn) [Example 5, N-ethyl-3-methyl-3-(4-(2-oxo-2,3-dihydro-1H-benzo[d]imidazol-1-yl)piperidin-1-yl)pyrrolidine-1-carboxamide], the EC50 (read-out: hM4 EC50) is more than 16000 nM.
